Results taken from US11319313B2, “Crystalline forms of deuterium-enriched pioglitazone” (Poxel SA, priority 2020, dated 2022).
Structures can show the parent of a compound that is named as a salt. Where two headings read alike, the source gives them in different places. Marks after values point to notes of the source that are not given here. Each block holds one molecule with its values, some of them ahead of it.

Key:
[1] = Dog pharmacokinetic (PK) study, single oral administration; assay type: in vivo, Beagle dogs; settings: dog, in vivo; for AUC0-24, Total Pio / AUC0-24, Total R-pio / AUC0-24, Total S-pio / Cmax, Total Pio / Cmax, Total R-pio / Cmax, Total S-pio / T1/2z, Total Pio / T1/2z, Total R-pio / T1/2z, Total S-pio / Tmax, Total Pio / Tmax, Total R-pio / Tmax, Total S-pio: po
Description: The 3 Beagle male dogs were fasted before dosing. Then all test drugs were administered by the oral route using API in a capsule. [table] Food was given no sooner than one hour after dose administration on the days of treatment. Each administration was separated by a wash-out period of at least 2 days. […] Predose (just before dosing) and then […] after dosing.

in vivo = settings: beagle, dog, plasma, po, 10 mg/kg/day
[2] = 13-week dog toxicology study, toxicokinetics on day 91; settings: Day 91, 10 mg/kg/day
[3] = pH-dependent solubility of crystalline salts (48 h equilibration, HPLC); assay type: physicochemical; settings: for Solubility: room temperature, 48 hours; for solubility at 48 h: 22 °C, thermodynamic from solid
Description: The pH-dependent solubility profiles of the crystalline DCl salt form of deuterium-enriched (R)-pioglitazone, and crystalline pioglitazone HCl were determined at room temperature (about 21° C. to about 23° C.) in the pH range of 0.3-7.6. For the crystalline HCl salt form of deuterium-enriched (R)-pioglitazone, the pH-dependent solubility profile was measured at room temperature (about 21° C. to about 23° C.) in the pH range of 0.3-3.5.
For the crystalline DCl salt form of deuterium-enriched pioglitazone, the pH-dependent solubility profile was measured at room temperature (about 21° C. to about 23° C.) in the pH range of 0.7-3.5.
Suspensions of the three crystalline forms were prepared in water or USP buffer solutions. The pH of the suspensions was adjusted through the addition of 0.1 M HCl or 0.1 M NaOH. For the preparation of suspensions with a pH of 0.5 or lower, the pH was adjusted using 1 M HCL.
The suspensions were then allowed to equilibrate at room temperature (about 21° C. to about 23° C.) for 48 hours. After equilibration the solid phases were separated from the liquid phases by centrifugation, subsequently dried and then analyzed by XRPD. The concentration of deuterium-enriched (R)-pioglitazone or pioglitazone in the liquid phases (mother liquors) was determined by HPLC (see HPLC method described in Example 5).

[4] = Solubility of crystalline DCl salt in various solvents (suspension, HPLC); assay type: physicochemical; settings: 24 hours at room temperature
Description: Aliquots of the mother liquor were then taken from each suspension and analyzed by HPLC to determine the concentration of deuterium-enriched (R)-pioglitazone in the different solvents. [table]

[5] = Solubility of crystalline HCl salt in various solvents (visual dissolution); assay type: physicochemical; settings: 22 °C, thermodynamic from solid, ambient temperature, visual inspection
Description: […]; (ii) the resulting mixtures were then stirred at ambient temperature (about 21° C. to about 23° C.) for 5-10 minutes; (iii) the mixtures were then visually inspected to determine if the crystalline HCl salt had completely dissolved; (iv) if the crystalline HCl salt had not completely dissolved more solvent was added until complete dissolution occurred. Quantitative testing: (i) 100 mg of crystalline HCl salt was added to 4 vol. of each solvent (0.4 mL) dimethylformamide, methanol and DMSO; (ii) the resulting mixtures were then stirred at ambient temperature (about 20° C. to about 25° C.) for 5-10 minutes; (iii) the mixtures were then visually inspected to determine if the crystalline HCl salt had completely dissolved; (iv) if the crystalline HCl salt had not completely dissolved more solvent was added until complete dissolution occurred.
The solubilities were then calculated using the total quantity of crystalline HCl salt and solvent used for each solvent.

[6] = Water, filtered mother liquor pH 1.6
[7] = pH 1.6, simulated gastric fluid

SMILES: [2H]Cl.[2H]N1C(=O)SC([2H])(Cc2ccc(OCCc3ccc(CC)cn3)cc2)C1=O (racemic) [deuterium-enriched pioglitazone]
Solubility ([3]; Water, filtered mother liquor pH 0.7): 5240 µg/mL
Solubility ([3]; Water, filtered mother liquor pH 0.9): 2490 µg/mL
Solubility ([3]; Water, filtered mother liquor pH 1.1): 1630 µg/mL
Solubility [3, 6]: 420 µg/mL
Solubility ([3]; Water, filtered mother liquor pH 3.1): <30 µg/mL
Solubility ([3]; Water, filtered mother liquor pH 4.8): <30 µg/mL
pH-dependent solubility behavior (in words) ([3]; pH range 0.7-3.5): behavior similar to that of pioglitazone HCl

SMILES: [2H]Cl.[2H]N1C(=O)S[C@]([2H])(Cc2ccc(OCCc3ccc(CC)cn3)cc2)C1=O [deuterium-enriched (R)-pioglitazone]
Solubility ([4]; 2-propanol): 500 µg/mL
Solubility ([4]; 3-pentanone): 500 µg/mL
Solubility ([4]; Acetone): 500 µg/mL
Solubility ([4]; Chloroform): 2000 µg/mL
Solubility ([4]; DMSO): 225900 µg/mL
Solubility ([4]; Ethanol): 4400 µg/mL
Solubility ([4]; Ethyl acetate): <100 µg/mL
Solubility ([4]; Methanol): 45000 µg/mL
Solubility ([4]; N,N-dimethylformamide): 46400 µg/mL
Solubility ([4]; Tetrahydrofuran): 1800 µg/mL
Solubility ([4]; Water): 7700 µg/mL
Solubility ([4]; tert-butyl methyl ether): <100 µg/mL
Solubility ([3]; Acetate Buffer, filtered mother liquor pH 4.4): <50 µg/mL
Solubility ([3]; Phosphate Buffer, filtered mother liquor pH 6.5): <50 µg/mL
Solubility ([3]; Phosphate Buffer, filtered mother liquor pH 7.4): <50 µg/mL
Solubility ([3]; Water, filtered mother liquor pH 0.4): 1600 µg/mL
Solubility ([3]; Water, filtered mother liquor pH 0.6): 3010 µg/mL
Solubility ([3]; Water, filtered mother liquor pH 0.8): 3300 µg/mL
Solubility ([3]; Water, filtered mother liquor pH 1.4): 4540 µg/mL
Solubility [3, 6]: 2580 µg/mL
Solubility ([3]; Water, filtered mother liquor pH 2.4): 390 µg/mL
Solubility ([3]; Water, filtered mother liquor pH 3.7): 50 µg/mL
Solubility ([3]; Water, filtered mother liquor pH 6.8): <50 µg/mL
Solubility (in words) ([3]; above pH 4): practically insoluble

SMILES: [2H][C@]1(Cc2ccc(OCCc3ccc(CC)cn3)cc2)SC(=O)NC1=O [deuterium-enriched (R)-pioglitazone]
Solubility ([5]; organic solvent or mixture, DMSO): > 50000 µg/mL
Solubility ([5]; organic solvent or mixture, Dichloromethane): 5000 to 10000 µg/mL
Solubility ([5]; organic solvent or mixture, Ethanol): 5000 to 10000 µg/mL
Solubility ([5]; organic solvent or mixture, Ethyl acetate): 5000 to 10000 µg/mL
Solubility ([5]; organic solvent or mixture, Methanol): ~50000 µg/mL
Solubility ([5]; organic solvent or mixture, N,N-dimethylformamide): ~50000 µg/mL
Solubility ([5]; organic solvent or mixture, Tetrahydrofuran): 5000 to 10000 µg/mL
Solubility ([5]; organic solvent or mixture, Toluene): 5000 to 10000 µg/mL
Solubility ([5]; Water): 5000 to 10000 µg/mL
solubility at 48 h ([3]; pH 0.5, aqueous buffer): 2330 µg/mL
solubility at 48 h ([3]; pH 0.6, aqueous buffer): 2600 µg/mL
solubility at 48 h ([3]; pH 0.7, aqueous buffer): 3270 µg/mL
solubility at 48 h ([3]; pH 0.8, aqueous buffer): 3770 µg/mL
solubility at 48 h ([3]; pH 1.4, simulated gastric fluid): 5250 µg/mL
solubility at 48 h [3, 7]: 3470 µg/mL
solubility at 48 h ([3]; pH 3, aqueous buffer): 200 µg/mL
solubility at 48 h ([3]; pH 5.7, aqueous buffer): < 50 µg/mL
Solubility (in words) ([3]; pH 4): practically insoluble

The next lines start with results.

Frel vs PXL061 (relative oral bioavailability), Total Pioglitazone [1]: 1
AUC0-24, Total Pio ([1]; 10 mg/kg): 4800 ng·h/mL
AUC0-24, Total R-pio ([1]; 10 mg/kg): 2650 ng·h/mL
AUC0-24, Total S-pio ([1]; 10 mg/kg): 2150 ng·h/mL
Cmax, Total Pio ([1]; 10 mg/kg): 1310 ng/mL
Cmax, Total R-pio ([1]; 10 mg/kg): 638 ng/mL
Cmax, Total S-pio ([1]; 10 mg/kg): 683 ng/mL
T1/2z, Total Pio ([1]; 10 mg/kg): 4.03 h
T1/2z, Total R-pio ([1]; 10 mg/kg): 2.78 h
T1/2z, Total S-pio ([1]; 10 mg/kg): 3.61 h
Tmax, Total Pio ([1]; 10 mg/kg): 1 h
Tmax, Total R-pio ([1]; 10 mg/kg): 1 h
Tmax, Total S-pio ([1]; 10 mg/kg): 1 h
SMILES: [2H]C1(Cc2ccc(OCCc3ccc(CC)cn3)cc2)SC(=O)NC1=O (racemic) [PXL061, deuterium-enriched pioglitazone]

AUC(0-t) (in vivo; female): 5620 ng·h/mL
AUC(0-t) (in vivo; male): 2970 ng·h/mL
SMILES: CCc1ccc(CCOc2ccc(CC3SC(=O)NC3=O)cc2)nc1 (racemic) [Pioglitazone]
AUC0-24, ss dose normalized, total pioglitazone ([2]; female dogs (F)): 562 ng·h/mL
AUC0-24, ss dose normalized, total pioglitazone ([2]; male dogs (M)): 297 ng·h/mL

AUC0-24, Total Pio ([1]; 5 mg/kg): 1410 ng·h/mL
AUC0-24, Total R-pio ([1]; 5 mg/kg): 203 ng·h/mL
AUC0-24, Total S-pio ([1]; 5 mg/kg): 1200 ng·h/mL
Cmax, Total Pio ([1]; 5 mg/kg): 588 ng/mL
Cmax, Total R-pio ([1]; 5 mg/kg): 54.0 ng/mL
Cmax, Total S-pio ([1]; 5 mg/kg): 538 ng/mL
T1/2z, Total Pio ([1]; 5 mg/kg): 1.73 h
T1/2z, Total R-pio ([1]; 5 mg/kg): 1.91^a h
T1/2z, Total S-pio ([1]; 5 mg/kg): 1.75 h
Tmax, Total Pio ([1]; 5 mg/kg): 2 h
Tmax, Total R-pio ([1]; 5 mg/kg): 2 h
Tmax, Total S-pio ([1]; 5 mg/kg): 2 h
SMILES: [2H][C@@]1(Cc2ccc(OCCc3ccc(CC)cn3)cc2)SC(=O)NC1=O [PXL064, deuterium-enriched (S)-pioglitazone]

Solubility (in words) [3]: practically insoluble
solubility at 48 h ([3]; pH 0.6, aqueous buffer): 2880 µg/mL
solubility at 48 h ([3]; pH 0.7, aqueous buffer): 4000 µg/mL
solubility at 48 h ([3]; pH 1.2, simulated gastric fluid): 670 µg/mL
solubility at 48 h [3, 7]: 440 µg/mL
solubility at 48 h ([3]; pH 3, aqueous buffer): 30 µg/mL
solubility at 48 h ([3]; pH 4.5, aqueous buffer): < 30 µg/mL
solubility at 48 h ([3]; pH 4.6, aqueous buffer): < 30 µg/mL
solubility at 48 h ([3]; pH 5.6, aqueous buffer): < 30 µg/mL
solubility at 48 h ([3]; pH 6.6, aqueous buffer): < 30 µg/mL
solubility at 48 h ([3]; pH 7.6, aqueous buffer): < 30 µg/mL
SMILES: CCc1ccc(CCOc2ccc(CC3SC(=O)NC3=O)cc2)nc1 (centres unmarked) [Pioglitazone HCl Salt, pioglitazone hydrochloride, reference compound]
